{"source": "paper PMC11501026", "about": "“L-Arginine and asymmetric dimethylarginine (ADMA) transport across the mouse blood-brain and blood-CSF barriers: Evidence of saturable transport at both interfaces and CNS to blood efflux” (PLOS ONE, 2024)", "test": "in situ brain/choroid plexus perfusion: CNS uptake of [^3H]-arginine, [^3H]-ADMA and [^14C]-sucrose (multiple-time and single-time uptake analysis)", "settings": "for Kp at 20 min, 62.5 nM / Kp at 30 min, 62.5 nM / Kp at 10 min, 62.5 nM / Kp at […] / Kp at […], 62.5 nM / Kp at 10 min: male, BALB/c, mouse, 5ml/min; for Kp at 10 min, 62.5 nM / Kp at 10 min: CONTROL; for Kp at […] / Kp at […], 62.5 nM: 2.5 mins", "key": {"[1]": {"settings": "CSF, Difference (ADMA minus Sucrose), mean"}, "[2]": {"settings": "CSF, [3H] ADMA and [14C] Sucrose uptake, mean"}, "[3]": {"settings": "caudate nucleus, Difference (ADMA minus Sucrose), mean"}, "[4]": {"settings": "caudate nucleus, [3H] ADMA and [14C] Sucrose uptake, mean"}, "[5]": {"settings": "cerebellum, Difference (ADMA minus Sucrose), mean"}, "[6]": {"settings": "cerebellum, [3H] ADMA and [14C] Sucrose uptake, mean"}, "[7]": {"settings": "choroid plexus, Difference (ADMA minus Sucrose), mean"}, "[8]": {"settings": "choroid plexus, [3H] ADMA and [14C] Sucrose uptake, mean"}, "[9]": {"settings": "frontal cortex, Difference (ADMA minus Sucrose), mean"}, "[10]": {"settings": "frontal cortex, [3H] ADMA and [14C] Sucrose uptake, mean"}, "[11]": {"settings": "hippocampus, Difference (ADMA minus Sucrose), mean"}, "[12]": {"settings": "hippocampus, [3H] ADMA and [14C] Sucrose uptake, mean"}, "[13]": {"settings": "hypothalamus, Difference (ADMA minus Sucrose), mean"}, "[14]": {"settings": "hypothalamus, [3H] ADMA and [14C] Sucrose uptake, individual mouse"}, "[15]": {"settings": "hypothalamus, [3H] ADMA and [14C] Sucrose uptake, mean"}, "[16]": {"settings": "occipital cortex, Difference (ADMA minus Sucrose), mean"}, "[17]": {"settings": "occipital cortex, [3H] ADMA and [14C] Sucrose uptake, mean"}, "[18]": {"settings": "pineal gland, Difference (ADMA minus Sucrose), mean"}, "[19]": {"settings": "pineal gland, [3H] ADMA and [14C] Sucrose uptake, mean"}, "[20]": {"settings": "pituitary gland, Difference (ADMA minus Sucrose), mean"}, "[21]": {"settings": "pituitary gland, [3H] ADMA and [14C] Sucrose uptake, mean"}, "[22]": {"settings": "pons, Difference (ADMA minus Sucrose), mean"}, "[23]": {"settings": "pons, [3H] ADMA and [14C] Sucrose uptake, mean"}, "[24]": {"settings": "thalamus, Difference (ADMA minus Sucrose), mean"}, "[25]": {"settings": "thalamus, [3H] ADMA and [14C] Sucrose uptake, individual mouse"}, "[26]": {"settings": "thalamus, [3H] ADMA and [14C] Sucrose uptake, mean"}}, "note": "Where a name gives a salt, the structure may show the parent alone.", "procedure": "All animals used in procedures were adult male BALB/c mice (between 23 g and 25 g) sourced from Harlan Laboratories, Oxon, UK, unless otherwise stated.\nAnimals were weighed immediately before the administration of the anaesthetic to ensure correct dosage. Domitor® (medetomidine hydrochloride) and Vetalar® (ketamine) were both purchased from Harlan Laboratories (Cambridge, UK). All animals were terminally anaesthetised (2 mg/kg Domitor® and 150 mg/kg Vetalar® injected intraperitoneally), and a lack of self-righting and paw-withdrawal reflexes (as surrogate indicators of consciousness) thoroughly checked prior to and during all procedures. If needed, additional anaesthetic was administered via the same route. […] At the end of the in situ brain perfusion procedure the animal was killed by decapitated under non-recovery anaesthesia. Animals were heparinised with 100 units heparin (in 0.9% m/v NaCl(aq), Harlan Laboratories; Oxon, UK), administered via the intraperitoneal route prior to surgery.\nThe in situ brain/choroid plexus perfusion method is designed to directly perfuse the brain with artificial plasma via a cannula placed in the heart. Artificial plasma is prepared to mimic the ionic composition of blood, and transporter inhibitors can be added in known concentrations and delivered to the brain for defined periods of time.\nThe left ventricle of the heart was cannulated with a 25G x 10 mm butterfly-winged needle connected to the perfusion circuit. […] The right atrium of the heart was sectioned to allow outflow of the artificial plasma. […] Radiolabelled and unlabelled test molecules were infused into the inflowing artificial plasma for periods up to 30 minutes.\nAt the set perfusion time a CSF sample was taken by inserting a pulled glass micropipette connected to silicon tubing and a syringe into the cisterna magna. Gentle suction was applied, and CSF was withdrawn. Only clear CSF samples were processed and taken for analysis. Samples contaminated with blood were discarded. The animal was then decapitated and the brain removed. Specific brain samples including the circumventricular organs (CVOs) were taken using a Leica S4E L2 stereomicroscope (Leica; Buckinghamshire, UK). The brain samples included the frontal cortex, caudate nucleus, occipital cortex, hippocampus, hypothalamus, thalamus, pons and cerebellum. The CVOs included the choroid plexus, pituitary gland and pineal gland.\nAll samples (brain regions, capillary depletion brain homogenate, pellet and supernatant, CVOs, CSF and plasma samples) were solubilised in 0.5 mL tissue solubiliser (Solvable; Perkin-Elmer; Boston, MA, USA). After incubating the samples at room temperature for 48 h, 4 mL scintillation fluid (Lumasafe®; Perkin-Elmer; Boston, MA, USA) was added to each before vigorous vortexing.", "data": [{"smiles": "CN(C)C(N)=NCCC[C@H](N)C(=O)O", "note": "[ADMA, N^G,N^G-dimethylarginine dihydrochloride]", "values": [{"measurement": "Kp at 20 min, 62.5 nM", "setting": "CSF, Difference (ADMA minus Sucrose), individual mouse", "value": 0.197}, {"measurement": "Kp at 20 min, 62.5 nM", "setting": "[1]", "value": 0.225}, {"measurement": "Kp at 30 min, 62.5 nM", "setting": "[1]", "value": 0.349}, {"measurement": "Kp at 10 min, 62.5 nM", "setting": "[1]", "value": 0.267}, {"measurement": "Kp at […]", "setting": "[2]", "value": 0.122}, {"measurement": "Kp at 20 min, 62.5 nM", "setting": "[2]", "value": 0.433}, {"measurement": "Kp at 10 min, 62.5 nM", "setting": "[2]", "value": 0.273}, {"measurement": "Kp at 30 min, 62.5 nM", "setting": "CSF, uptake into CSF, [3H] ADMA + [14C] Sucrose, Balb/c ♂, mean", "value": 0.721}, {"measurement": "Kp at […], 62.5 nM", "setting": "[3]", "value": 0.0936}, {"measurement": "Kp at 20 min, 62.5 nM", "setting": "[3]", "value": 0.256}, {"measurement": "Kp at […], 62.5 nM", "setting": "[4]", "value": 0.107}, {"measurement": "Kp at 20 min, 62.5 nM", "setting": "[4]", "value": 0.28}, {"measurement": "Kp at […]", "setting": "[5]", "value": 0.0947}, {"measurement": "Kp at 20 min, 62.5 nM", "setting": "[5]", "value": 0.273}, {"measurement": "Kp at […]", "setting": "[6]", "value": 0.112}, {"measurement": "Kp at 20 min, 62.5 nM", "setting": "[6]", "value": 0.3}, {"measurement": "Kp at […], 62.5 nM", "setting": "[7]", "value": 0.671}, {"measurement": "Kp at 20 min, 62.5 nM", "setting": "[7]", "value": 1.92}, {"measurement": "Kp at […], 62.5 nM", "setting": "choroid plexus, [3H] ADMA and [14C] Sucrose uptake, individual mouse", "value": 0.645}, {"measurement": "Kp at […], 62.5 nM", "setting": "[8]", "value": 0.855}, {"measurement": "Kp at 20 min, 62.5 nM", "setting": "[8]", "value": 2.24}, {"measurement": "Kp at […], 62.5 nM", "setting": "frontal cortex, Difference (ADMA minus Sucrose), individual mouse", "value": 0.0723}, {"measurement": "Kp at […], 62.5 nM", "setting": "[9]", "value": 0.0986}, {"measurement": "Kp at 20 min, 62.5 nM", "setting": "[9]", "value": 0.276}, {"measurement": "Kp at […], 62.5 nM", "setting": "frontal cortex, [3H] ADMA and [14C] Sucrose uptake, individual mouse", "value": 0.0847}, {"measurement": "Kp at […], 62.5 nM", "setting": "[10]", "value": 0.113}, {"measurement": "Kp at 20 min, 62.5 nM", "setting": "[10]", "value": 0.302}, {"measurement": "Kp at […], 62.5 nM", "setting": "hippocampus, Difference (ADMA minus Sucrose), individual mouse", "value": 0.0843}, {"measurement": "Kp at […], 62.5 nM", "setting": "[11]", "value": 0.1}, {"measurement": "Kp at 20 min, 62.5 nM", "setting": "[11]", "value": 0.254}, {"measurement": "Kp at […], 62.5 nM", "setting": "hippocampus, [3H] ADMA and [14C] Sucrose uptake, individual mouse", "value": 0.0898}, {"measurement": "Kp at […], 62.5 nM", "setting": "[12]", "value": 0.109}, {"measurement": "Kp at 20 min, 62.5 nM", "setting": "[12]", "value": 0.273}, {"measurement": "Kp at […]", "setting": "hypothalamus, Difference (ADMA minus Sucrose), individual mouse", "value": 0.0965}, {"measurement": "Kp at […]", "setting": "[13]", "value": 0.0993}, {"measurement": "Kp at 20 min, 62.5 nM", "setting": "[13]", "value": 0.364}, {"measurement": "Kp at […]", "setting": "[14]", "value": 0.114}, {"measurement": "Kp at […]", "setting": "[15]", "value": 0.127}, {"measurement": "Kp at 20 min, 62.5 nM", "setting": "[14]", "value": 0.38}, {"measurement": "Kp at 20 min, 62.5 nM", "setting": "[15]", "value": 0.416}, {"measurement": "Kp at […], 62.5 nM", "setting": "occipital cortex, Difference (ADMA minus Sucrose), individual mouse", "value": 0.0744}, {"measurement": "Kp at […], 62.5 nM", "setting": "[16]", "value": 0.086}, {"measurement": "Kp at 20 min, 62.5 nM", "setting": "[16]", "value": 0.268}, {"measurement": "Kp at […], 62.5 nM", "setting": "occipital cortex, [3H] ADMA and [14C] Sucrose uptake, individual mouse", "value": 0.083}, {"measurement": "Kp at […], 62.5 nM", "setting": "[17]", "value": 0.0969}, {"measurement": "Kp at 20 min, 62.5 nM", "setting": "[17]", "value": 0.293}, {"measurement": "Kp at […], 62.5 nM", "setting": "[18]", "value": 0.235}, {"measurement": "Kp at 20 min, 62.5 nM", "setting": "[18]", "value": 0.986}, {"measurement": "Kp at 30 min, 62.5 nM", "setting": "[18]", "value": 0.416}, {"measurement": "Kp at 10 min", "setting": "[18]", "value": 1.94}, {"measurement": "Kp at […], 62.5 nM", "setting": "[19]", "value": 0.527}, {"measurement": "Kp at 20 min, 62.5 nM", "setting": "[19]", "value": 1.32}, {"measurement": "Kp at 10 min", "setting": "[19]", "value": 2.56}, {"measurement": "Kp at 30 min, 62.5 nM", "setting": "pineal gland, uptake into pineal gland, [3H] ADMA + [14C] Sucrose, Balb/c ♂, mean", "value": 0.614}, {"measurement": "Kp at […]", "setting": "[20]", "value": 0.585}, {"measurement": "Kp at 20 min, 62.5 nM", "setting": "[20]", "value": 1.19}, {"measurement": "Kp at […]", "setting": "[21]", "value": 0.761}, {"measurement": "Kp at 20 min, 62.5 nM", "setting": "[21]", "value": 1.4}, {"measurement": "Kp at […]", "setting": "[22]", "value": 0.0907}, {"measurement": "Kp at 20 min, 62.5 nM", "setting": "[22]", "value": 0.306}, {"measurement": "Kp at […]", "setting": "pons, [3H] ADMA and [14C] Sucrose uptake, individual mouse", "value": 0.0924}, {"measurement": "Kp at […]", "setting": "[23]", "value": 0.117}, {"measurement": "Kp at 20 min, 62.5 nM", "setting": "[23]", "value": 0.347}, {"measurement": "Kp at […]", "setting": "thalamus, Difference (ADMA minus Sucrose), individual mouse", "value": 0.0741}, {"measurement": "Kp at […]", "setting": "[24]", "value": 0.0969}, {"measurement": "Kp at 20 min, 62.5 nM", "setting": "[24]", "value": 0.282}, {"measurement": "Kp at […]", "setting": "[25]", "value": 0.0799}, {"measurement": "Kp at […]", "setting": "[26]", "value": 0.108}, {"measurement": "Kp at 20 min, 62.5 nM", "setting": "[25]", "value": 0.331}, {"measurement": "Kp at 20 min, 62.5 nM", "setting": "[26]", "value": 0.312}, {"measurement": "CNS-to-blood efflux", "setting": "multiple-time uptake studies, loss of linearity", "value": "presence of CNS-to-blood efflux"}]}]}
